Measured values from patent US20230242915A1, “SMALL INTERFERING DEOXYRIBONUCLEIC ACID (SIDNA) AGAINST METALLO-BETA LACTAMASE GENE” (priority 2021, published 2023).
{FAM} = 6-FAM fluorescein dye; {TAMRA} = TAMRA dye

Key:
[1] = system: imipenem-resistant Pseudomonas aeruginosa; experiment: chronic Pseudomonas aeruginosa lung infection model, lung histology; format: in vivo; settings: infected mice, imipenem in combination with siDNA (with chitosan), 3 days of treatment; compared with FIG. 5A mouse
Procedure: In this example, the effect of an exemplary siDNA on an exemplary imipenem-resistant Pseudomonas aeruginosa was assessed in 40 mice with chronic Pseudomonas aeruginosa lung infection. For this purpose, a 1% w/v concentration of chitosan polymer was prepared, followed by preparing two different ratios of chitosan 1% w/v to an exemplary siDNA—in phosphate buffered saline (PBS)—including an exemplary 1:1 ration and an exemplary 0.5:1 ratio.
A chronic Pseudomonas aeruginosa lung infection model (using imipenem-resistant Pseudomonas aeruginosa) was established in 40 mice (25-30 g). Exemplary mice were randomly divided into three groups (each group comprising 10 mice) including: i) an exemplary control group that only received imipenem after acquiring chronic infection, ii) an exemplary first group that received imipenem in combination with an exemplary siDNA (ratio 0.5:1 of chitosan 1% w/v to an exemplary siDNA) after acquiring chronic infection, and iii) an exemplary second group that received imipenem in combination with an exemplary siDNA (ratio 1:1 of chitosan 1% w/v to an exemplary siDNA) after acquiring chronic infection. […] The level of tissue damage in an exemplary control group, first group, and second group was observed and analyzed by light microscopy. […]

blaIMP-1 gene = experiment: blaIMP-1 mRNA level by real time RT-PCR in Pseudomonas aeruginosa transformed with siDNA; format: cell-based; settings: for Fold change of blaIMP-1 mRNA: 2-ΔΔCt, untreated = about 1
Procedure: In this example, the synthesized siDNA in “Example 1” (comprising exemplary sense and antisense strands set forth in SEQ ID NO: 1 and 2, respectively) was cloned into Pseudomonas aeruginosa bacteria harboring an exemplary blaIMP-1 gene (imipenem/meropenem resistance gene). To this end, first, competent Pseudomonas aeruginosa was prepared and stored at −70° C. to be used in further experiments. Competent cells may refer to microbial cells capable of taking up foreign nucleic acid molecules from their surroundings through a process known as transformation. In order to transfer/clone the prepared siDNA into the competent Pseudomonas aeruginosa bacteria, 100 μL of an exemplary siDNA (either being coated with chitosan polymer or being bare—i.e., being uncoated) with a concentration of about 1% w/v was added to 60 μL of the competent Pseudomonas aeruginosa culture in Lysogeny Broth (LB) medium, gently mixed, and kept at 0° C. for 45 min. Then, the mixture of an exemplary siDNA (either being bare or coated with chitosan polymer) with the culture of competent Pseudomonas aeruginosa was incubated at 37° C., for 20 sec, and immediately placed on ice. Then, 800 μL of Super Optimal broth (SOC) medium was added to the mixture of an exemplary siDNA (either being bare or coated with chitosan polymer) with the culture of competent Pseudomonas aeruginosa and incubated at 37° C., in a shaker incubator, for 24-30 h.
In this example, the effect of an exemplary siDNA—which was cloned into Pseudomonas aeruginosa bacteria in “Example 2”—on the expression of an exemplary blaIMP-1 gene was evaluated. In other words, the level of blaIMP-1 mRNA (messenger RNA) was measured in the transformed Pseudomonas aeruginosa bacteria with an exemplary siDNA in “Example 2”. For this purpose, the total RNA of an exemplary transformed Pseudomonas aeruginosa and an exemplary untreated Pseudomonas aeruginosa (as negative control) was extracted using a commercial RNA extraction kit, followed by conducting a real time RT-PCR (reverse transcriptase polymerase chain reaction) to determine the level of blaIMP-1 mRNA. In this example, 2-ΔΔCt method was used to determine differences in normalized expression of an exemplary blaIMP-1 gene (at transcription level) induced by an exemplary siDNA. FIG. 2 illustrates RNA expression profile 200 in an exemplary transformed Pseudomonas aeruginosa with an exemplary siDNA (measured by real time RT-PCR), consistent with one or more exemplary embodiments of the present disclosure. As shown in RNA expression profile 200, Group A refers to an exemplary transformed Pseudomonas aeruginosa bacteria grown for 4 h in the presence of imipenem, Group B refers to an exemplary transformed Pseudomonas aeruginosa bacteria grown for 18 h in the presence of imipenem, and Group C refers to an exemplary transformed Pseudomonas aeruginosa bacteria grown for 36 h in the presence of imipenem. […] Fold change of an exemplary blaIMP-1 mRNA in untreated Pseudomonas aeruginosa, Group A, Group B, and Group C—shown in RNA expression profile 200—were about 1, 0.088, 0.020, and 0.27, respectively.

[2] = system: Pseudomonas aeruginosa harboring blaIMP-1 gene; experiment: imipenem MIC assay (broth dilution) on transformed Pseudomonas aeruginosa; format: cell-based
Procedure: In this example, the synthesized siDNA in “Example 1” (comprising exemplary sense and antisense strands set forth in SEQ ID NO: 1 and 2, respectively) was cloned into Pseudomonas aeruginosa bacteria harboring an exemplary blaIMP-1 gene (imipenem/meropenem resistance gene). To this end, first, competent Pseudomonas aeruginosa was prepared and stored at −70° C. to be used in further experiments. Competent cells may refer to microbial cells capable of taking up foreign nucleic acid molecules from their surroundings through a process known as transformation. In order to transfer/clone the prepared siDNA into the competent Pseudomonas aeruginosa bacteria, 100 μL of an exemplary siDNA (either being coated with chitosan polymer or being bare—i.e., being uncoated) with a concentration of about 1% w/v was added to 60 μL of the competent Pseudomonas aeruginosa culture in Lysogeny Broth (LB) medium, gently mixed, and kept at 0° C. for 45 min. Then, the mixture of an exemplary siDNA (either being bare or coated with chitosan polymer) with the culture of competent Pseudomonas aeruginosa was incubated at 37° C., for 20 sec, and immediately placed on ice. […]
On the other hand, to further confirm success of an exemplary siDNA in silencing an exemplary blaIMP-1 gene in Pseudomonas aeruginosa, minimum inhibitory concentration (MIC) of imipenem was determined in an exemplary transformed Pseudomonas aeruginosa. To this end, MICs of imipenem that may inhibit the growth of an exemplary transformed Pseudomonas aeruginosa (with an exemplary siDNA) was determined after 1-4 h, 2-18 h, and 3-36 h, by broth dilution method performed in a 96-well microtiter plate. […]
To conduct an exemplary MIC assay, bacterial culture grown to log phase was adjusted to about 5×10^5 (cells/mL) in Muller-Hinton broth. Then, the antimicrobial effect of imipenem on an exemplary transformed Pseudomonas aeruginosa and an exemplary untreated Pseudomonas aeruginosa was determined by measuring turbidity of bacterial growth in each well, using a microtiter plate reader. […]

With “siDNA: Annealed duplex of sense strand SEQ ID NO: 1 and antisense strand SEQ ID NO: 2, each 5′ 6-FAM and 3′ TAMARA, targeting blaIMP-1 gene (sense GCCGACATCGCCTTCGGCGTTTATGATT; antisense AACGCGAGAAAGTATGAACCTAGCACTT; DNA, 5' {FAM}, 3' {TAMRA}, backbone and methylation of C not given here)” the “edema and tissue damage in lung tissue (hematoxylin and eosin histology)” value [1] was “significantly less edema and tissue damage”, the “decrease of gene expression compared to untreated Pseudomonas aeruginosa” value (from here on “decrease of gene expression”) (blaIMP-1 gene; Group A, 4 h in the presence of imipenem) was 11.36 folds and the “Fold change of blaIMP-1 mRNA” value (blaIMP-1 gene; Group A: transformed bacteria grown 4 h in the presence of imipenem) was ~0.088. For the same substance, the “decrease of gene expression” value (blaIMP-1 gene; Group B, 18 h in the presence of imipenem) was 50 folds, the “Fold change of blaIMP-1 mRNA” value (blaIMP-1 gene; Group B: transformed bacteria grown 18 h in the presence of imipenem) was ~0.020 and the “decrease of gene expression” value (blaIMP-1 gene; Group C, 36 h in the presence of imipenem) was 3.7 folds. The “Fold change of blaIMP-1 mRNA” value (blaIMP-1 gene; Group C: transformed bacteria grown 36 h in the presence of imipenem) was ~0.27, the “MIC of imipenem in siDNA-transformed Pseudomonas aeruginosa” value (from here on “MIC of imipenem”) ([2]; Group A, 4 h, Muller-Hinton broth) was 2 µg/mL and the “MIC of imipenem” value ([2]; Group B, 18 h, Muller-Hinton broth) was 4 µg/mL. The “MIC of imipenem” value ([2]; Group C, 36 h, similar to untreated negative control) was 32 µg/mL.
